Assay results as given in the CheMixHub viscosity set.

Assay: xn = mol fraction of the nth substance listed

Cc1cc[n+](CCCO)cc1.[Cl-] + O
viscosity [mPa·s], 100 kPa
Settings | x1 = 0.001799 | x1 = 0.00269 | x1 = 0.003585 | x1 = 0.005375 | x1 = 0.007144 | x1 = 0.008904
293.15 K | 1.067 | 1.092 | 1.116 | 1.161 | 1.204 | 1.244
298.15 K | 0.942 | 0.963 | 0.984 | 1.022 | 1.059 | 1.094
303.15 K | 0.84 | 0.859 | 0.876 | 0.911 | 0.943 | 0.974
308.15 K | 0.756 | 0.772 | 0.787 | 0.818 | 0.847 | 0.875
313.15 K | 0.685 | 0.699 | 0.713 | 0.741 | 0.767 | 0.792

Cl.NNC(N)=O + O
viscosity [mPa·s], 101 kPa
Settings | 293.15 K | 298.15 K | 303.15 K | 308.15 K | 313.15 K | 318.15 K
x1 = 0.000452 | 1.008 | 0.8953 | 0.8016 | 0.7228 | – | 0.6
x1 = 0.000904 | 1.014 | 0.9003 | 0.8058 | 0.7263 | 0.6589 | 0.6026
x1 = 0.00135 | – | 0.9052 | 0.81 | 0.7299 | 0.6619 | 0.6051
x1 = 0.001798 | – | 0.9101 | 0.8142 | – | – | 0.6077
x1 = 0.002249 | – | 0.915 | 0.8183 | 0.737 | 0.6679 | 0.6102
x1 = 0.00269 | 1.037 | 0.9199 | 0.8224 | 0.7404 | 0.6708 | 0.6127
x1 = 0.003585 | 1.049 | 0.9296 | 0.8306 | 0.7475 | 0.6767 | 0.6176
x1 = 0.004482 | 1.06 | 0.9395 | 0.8389 | 0.7543 | 0.6826 | 0.6226
x1 = 0.005372 | 1.072 | 0.9492 | 0.8472 | 0.7612 | 0.6884 | 0.6275
x1 = 0.006264 | 1.083 | 0.959 | 0.8554 | 0.7682 | 0.6944 | 0.6324
x1 = 0.007149 | 1.095 | 0.9687 | 0.8637 | 0.775 | 0.7001 | 0.6373

NCCNCCNCCN + O
viscosity [mPa·s]
Settings | 303.15 K | 313.15 K | 323.15 K
100 kPa, x1 = 0.006 | – | 0.78 | –
100 kPa, x1 = 0.014 | – | 0.98 | –
100 kPa, x1 = 0.03 | – | 1.69 | –
100 kPa, x1 = 0.076 | – | 6.61 | –
101 kPa, x1 = 0.0299 | 2.243 | 1.716 | 1.359
101 kPa, x1 = 0.0502 | 5.399 | 3.454 | 2.481
101 kPa, x1 = 0.0759 | 11.81 | 7.786 | 5.213
101 kPa, x1 = 0.1097 | 22.1 | 13.05 | 8.624
101 kPa, x1 = 0.156 | 38.42 | 22.22 | 14.34
101 kPa, x1 = 0.2233 | 60.39 | 32.27 | 20.32
101 kPa, x1 = 0.3302 | 82.48 | 42.63 | 26.01
101 kPa, x1 = 0.5259 | 75.67 | 38.19 | 21.84
101 kPa, x1 = 0.7007 | 50.89 | 27.24 | 15.21
101 kPa, x1 = 0.7994 | 39.76 | 21.64 | 12.67
101 kPa, x1 = 0.9242 | 31.35 | 16.13 | 10.61

[K+].[K+].[O]=[Cr](=[O])([O-])[O][Cr](=[O])(=[O])[O-] + O
viscosity [mPa·s], 101 kPa
Settings | x1 = 0.001 | x1 = 0.003 | x1 = 0.0068 | x1 = 0.015
298.15 K | 0.89 | 0.9 | 0.91 | –
312.95 K | 0.66 | 0.67 | 0.68 | 0.73

c1c[nH]cn1 + O
viscosity [mPa·s], 100 kPa
Settings | x1 = 0.0286 | x1 = 0.0621 | x1 = 0.102 | x1 = 0.15 | x1 = 0.209
298.15 K | 1.058 | 1.242 | 1.47 | 1.737 | 2.14
303.15 K | 0.944 | 1.103 | 1.301 | 1.541 | 1.881
313.15 K | 0.771 | 0.892 | 1.043 | 1.261 | 1.543
323.15 K | 0.647 | 0.742 | 0.862 | 1.034 | 1.254

c1c[nH]cn1 + O=C1CCCCCN1
101 kPa, x2 = 0.5
Settings | viscosity [mPa·s]
303.2 K | 49.07
313.1 K | 25
323.1 K | 16.2

CC(O)CCO (stereo unspecified) + O=C1CCCN1
Settings | viscosity [mPa·s]
308.15 K, 101 kPa, x2 = 0.7935 | 11.85

c1ccncc1 + OCC(O)CO
101 kPa
Settings | viscosity [mPa·s]
298.15 K, x1 = 0.6001 | 17.25
298.15 K, x1 = 0.8001 | 3.155
303.15 K, x1 = 0.4 | 66.75
308.15 K, x1 = 0.1 | 275.5
313.15 K, x1 = 0.2001 | 116.5
313.15 K, x1 = 0.4 | 36.35

CCCCCCC(C)O (stereo unspecified) + c1ccccc1
viscosity [mPa·s], 101 kPa
Settings | 298.15 K | 303.15 K
x2 = 0.0555 | 5.871 | 4.689
x2 = 0.1239 | 5.076 | 4.101
x2 = 0.1912 | 4.353 | 3.577
x2 = 0.2386 | 3.886 | 3.224
x2 = 0.3153 | 3.181 | 2.703
x2 = 0.4353 | 2.241 | 2.018
x2 = 0.4865 | 1.923 | 1.764
x2 = 0.6072 | 1.318 | 1.264
x2 = 0.6941 | 1.008 | 0.986
x2 = 0.7432 | 0.876 | 0.876
x2 = 0.8011 | 0.761 | 0.754
x2 = 0.8599 | 0.693 | 0.667
x2 = 0.909 | 0.655 | 0.608
x2 = 0.9541 | 0.637 | 0.58

O=C(Cl)c1ccccc1 + c1ccccc1
303.15 K, 101 kPa
Settings | viscosity [mPa·s]
x2 = 0.1255 | 1.176
x2 = 0.2441 | 1.108
x2 = 0.3564 | 1.04
x2 = 0.4627 | 0.9726
x2 = 0.5637 | 0.9048
x2 = 0.6596 | 0.8369
x2 = 0.7509 | 0.7688
x2 = 0.8379 | 0.7005
x2 = 0.9208 | 0.632

c1c[nH]cn1 + c1ccccc1
viscosity [mPa·s], 101 kPa
Settings | x1 = 0.003214 | x1 = 0.006433 | x1 = 0.01278 | x1 = 0.03561 | x1 = 0.03951
303.15 K | 0.57 | 0.578 | 0.595 | – | –
323.15 K | – | – | 0.457 | 0.505 | 0.513

c1ccncc1 + c1ccccc1
viscosity [mPa·s], 101 kPa
Settings | x1 = 0.3943 | x1 = 0.5905 | x1 = 0.7944 | x1 = 0.8965 | x2 = 0.2 | x2 = 0.4 | x2 = 0.6 | x2 = 0.8
293.15 K | – | – | – | – | 0.893 | 0.832 | 0.77 | 0.709
298.15 K | 0.7169 | 0.7726 | 0.8345 | 0.8601 | – | – | – | –
313.15 K | – | – | – | – | 0.678 | 0.632 | 0.585 | 0.538

c1cn[nH]c1 + c1ccccc1
viscosity [mPa·s], 101 kPa
Settings | x1 = 0.02244 | x1 = 0.04519 | x1 = 0.05005 | x1 = 0.1006
303.15 K | 0.577 | 0.597 | 0.594 | 0.627
323.15 K | 0.449 | 0.46 | 0.462 | –
